Usually IC50 stands for the midpoint of a concentration-inhibition curve.

Experimental findings from patent publication US12350269B2 (Alexion Pharmaceuticals, Inc., priority 2015, dated 2025) are described below.

Test systems include U2932; DHL8; LY10; LY18; LY7; DLCL2; TOLEDO; LY1; DHL6; DHL10; DHL5; DB; VAL; RCK8.
Test in all cases: DLBCL cell line viability, CellTiter Glo
Common to all, as to assay type: cell-based
What all share (conditions): read-out: IC50 of Kinase Inhibitor in CellTiter Glo Assay

Experimental for DB: (§1) Each IC50 value is an average of at least four replicate experiments. Subsequent analysis using a FACS based caspase 3 cleavage detection kit (BD Biosciences) and Edu incorporation were performed.
Experimental for DHL10: as §1
Experimental for DHL5: as §1
Experimental for DHL6: as §1
Experimental for DHL8: as §1
Experimental for DLCL2: as §1
Experimental for LY10: as §1
Experimental for LY18: as §1
Experimental for LY7: as §1
Experimental for RCK8: as §1
Experimental for TOLEDO: as §1
Experimental for U2932: as §1
Experimental for VAL: as §1

Consider `CC(C)(C)c1nc2c3cc[nH]c(=O)c3c3cc(F)ccc3c2[nH]1` [Pan-Jak], for which the IC50 in the assay on U2932 turned out to be 3.9 µM; with DHL8, 28 µM; with LY10 it was 5.1 µM; with LY18, 0.8 µM; in the assay on LY7, 34 µM; with DLCL2, 42 µM. Moreover, the IC50 came to 5.9 µM with TOLEDO; 0.7 µM in the assay with LY1; 2.63 µM in the assay on DHL6; 40 µM with DHL10; 39 µM in the assay with DHL5; 21.4 µM in the assay on DB. Also, the figures for the IC50 in the assay on VAL and with RCK8 were 5.2 µM and 43 µM, respectively.
